Test results published in patent publication US20100035843A1, “METHODS FOR ATTENUATING ALLERGEN-INDUCED AIRWAY HYPERREACTIVITY USING CD1D DEPENDENT ANTAGONISTS” (THE GENERAL HOSPITAL CORPORATION, priority 2007, published 2010).

Experiments:
[1] = system: contact hypersensitivity (CHS); settings: Nieuwenhuis et al.; cited from earlier work
[2] = system: OVA-specific Th2 responses; test: Restimulation of bronchial lymph node cells of treated mice with OVA in vitro, cytokine ELISA; type: in vivo, BALB/c mice
Experimental: Bronchial lymph nodes were removed from Peg treated or PBS treated mice and restimulated with 100 μg of OVA in vitro. After 72 hrs supernatants were collected and cytokine production analyzed by ELISA. ELISA data are representative of three separate experiments (n=4) and are shown as mean±SD for triplicate samples. Restimulation of lymph node cells in vitro. Cells isolated from lymph nodes of OVA-primed mice were restimulated in vitro (5×10^5 cells per well in a 96-well plate) with various concentrations of OVA. Supernatants were collected after 4 days and assayed for IL-4 and IFN-γ by ELISA as previously described (15). Cytokine ELISAs—Cytokine secretion following in vitro challenge with OVA and control peptides were determined by ELISA as described before (15). Briefly, the following monoclonal antibodies R4-6A2 and XMG1.2-biotin for IFN-γ and 11B11 and BVD6-24G2-biotin for IL-4 were used for capture and detection. […] Bronchial lymph nodes were removed from Peg treated or PBS treated mice and restimulated with 100 μg of OVA in vitro. After 72 hrs supernatants were collected and cytokine production analyzed by ELISA. ELISA data are representative of three separate experiments (n=4) and are shown as mean±SD for triplicate samples. Since treatment with DPPE-PEG350 inhibited the development of AHR, we next asked if administration of the CD1d-dependent antagonist prior to airway challenge altered systemic OVA-specific Th2 responses. Bronchial lymph node cells were isolated from OVA sensitized mice treated with either DPPE-PEG350 or PBS, and restimulated in vitro with 100 μg/ml of ovalbumin a day after induction of AHR. […] No OVA-specific cytokine secretion was seen if the animals had not been sensitized with OVA on day 0 (data not shown).

[3] = system: iNKT cell hybridoma line DN32; test: DN32 NKT hybridoma activation by α-GalCer, IL-2 release read with CTLL-2 cells; type: cell-based; settings: 200 μg/ml for 4 hours, then titrating α-GalCer 48 h; particularly at suboptimal α-GalCer (FIG. 1C)
Experimental: Culture supernatants were collected and IL-2 expression expression analyzed with IL-2 dependant cell line CTLL-2. Data are means±SD of triplicate cultures.
Phosphatidylethanolamine and DPPE-PEG bind to CD1d and prevent iNKT cell activation (2-5). To determine whether activation of iNKT cells by α-GalCer could specifically be inhibited by DPPE-PEG, splenocytes were incubated with α-GalCer (100 ng/ml) or plate-bound anti-CD3. […] FIGS. 1A and 1B show splenocyte cells (5×10^6/ml) pooled from BALB/cJ mice (n=4) that were cultured in anti-CD3 mAb (2 μg/ml)-precoated 24-well plates in complete RPMI±increasing concentrations of DPPE-PEG350, or that were cultured in 24-well plates in complete RPMI±α-GalCer (100 ng/ml)±increasing concentrations of DPPE-PEG350. After 48 h, supernatants were gathered and examined for IL-4 and INF-γ by ELISA. ELISA data are representative of three separate experiments each and are shown as mean±SD for triplicate samples. […] Culture supernatants were collected and IL-2 expression expression analyzed with IL-2 dependant cell line CTLL-2. Data are means±SD of triplicate cultures.
We also tested the ability of DPPE-PEG350 to block the iNKT cell hybridoma line DN32, activation by α-GalCer. DN32 cells were loaded with 200 μg/ml of DPPE-PEG, and stimulated with titrating dose of α-GalCer. […]

[4] = system: OVA-induced AHR; test: OVA-induced model of airway hyperreactivity (AHR); type: in vivo, BALB/c mice; settings: for number of cells (eosinophils, lymphocytes, macrophages) in BAL fluid: versus OVA-immunized control group, BAL 3 h after airway measurements (FIG. 2D); for histological examination of H&E-stained lung sections: OVA-immunized mice, compared with saline (negative) control (data not shown); for development of methacholine-induced AHR (PenH, whole-body plethysmograph): single dose 250 μg i.v., 1 day before OVA challenge, OVA-immunized mice (FIG. 2B)
Experimental: DPPE (250 μg) was injected i.v. on day 8 and AHR was measured on day 12. Reagents. Anti-CD3 mAb was purchased from BD PharMingen (San Diego, Calif.). α-Galactosylceramide (α-[…]7000) was purchased from Axxora LLC (San Diego, Calif.). DPPE-PEG. (1,2-Dipalmitoyl-sn-Glycero-3-Phosphoethanolamine-N-[Methoxy(Polyethylene glycol)-350]) (Ammonium Salt) (PEG350) was purchased from Avanti Polar Lipids, INC (Alabaster, Ala.). We thank A. Bendelac for the DN32.D3 hybridoma cells. To induce AHR, mice were immunized intraperitoneally with 50 μg of LPS free OVA (Worthington Biochemical Corp., NJ) in 2 mg of alum in volume of 0.5 ml. Ten days later mice were lightly anesthetized with methoxoflurane and challenged with i.n. OVA (50 μg) on 3 consecutive days. Induction of AHR and measurement of airway responsiveness-AHR responses were assessed by methacholine-induced airflow obstruction in conscious mice placed in a whole-body plethysmograph (Buxco Electronics, Troy, N.Y.) as described previously 15. In some experiments AHR was assessed by invasive measurement of airway resistance, in which anesthetized and tracheostomized mice were mechanically ventilated using a modified version of a described method 36. Aerosolized methacholine was administered for 20 breaths in increasing concentrations (1.25, 2.5, 5 and 10 mg/ml of methacholine). We continuously computed RL and Cdyn by fitting flow, volume and pressure to an equation of motion. Collection and analysis of BAL fluid-Mice were lethally anesthetized with phenobarbital 450 mg/kg i.p. The trachea was cannulated and the lungs were lavaged three times with 0.3 ml of PBS, and the collected fluid was pooled. Cell counts and analysis of the BAL was performed as described (15). […] In this model, an asthma-like phenotype with AHR, eosinophilic airway inflammation and mucus hypersecretion is induced by systemic sensitization with OVA followed by intrapulmonary challenge with OVA (FIG. 2A).

[5] = system: anti-CD3 activated T cells; test: Splenocytes cultured on plate-bound anti-CD3 mAb, cytokine ELISA; type: cell-based, BALB/cJ mice; settings: plate-bound anti-CD3 2 μg/ml, at concentrations that significantly inhibited α-GalCer-stimulated secretion
Experimental: (§1) FIGS. 1A and 1B show splenocyte cells (5×10^6/ml) pooled from BALB/cJ mice (n=4) that were cultured in anti-CD3 mAb (2 μg/ml)-precoated 24-well plates in complete RPMI±increasing concentrations of DPPE-PEG350, or that were cultured in 24-well plates in complete RPMI±α-GalCer (100 ng/ml)±increasing concentrations of DPPE-PEG350. After 48 h, supernatants were gathered and examined for IL-4 and INF-γ by ELISA. ELISA data are representative of three separate experiments each and are shown as mean±SD for triplicate samples.
(§2) Inhibition of in vitro iNKT activation with DPPE-PEG-Splenocytes cells (5×10^6/ml) pooled from BALB/cJ mice (n=4) were cultured in anti-CD3 mAb (2 μg/ml)-precoated 24-well plates in complete RPMI±increasing concentrations of DPPE-PEG350, or cultured in 24-well plates in complete RPMI±KRN7000 (100 ng/ml)±increasing concentrations of DPPE-PEG350. After 48 h, supernatants were gathered and examined for IL-4 and INF-γ by ELISA as described (35).
(§3) Phosphatidylethanolamine and DPPE-PEG bind to CD1d and prevent iNKT cell activation (2-5). To determine whether activation of iNKT cells by α-GalCer could specifically be inhibited by DPPE-PEG, splenocytes were incubated with α-GalCer (100 ng/ml) or plate-bound anti-CD3. […] Culture supernatants were collected and IL-2 expression expression analyzed with IL-2 dependant cell line CTLL-2. […]

[6] = system: CD1d; settings: references 2-5; cited from earlier work
[7] = system: α-GalCer-stimulated iNKT cells; test: Inhibition of in vitro iNKT activation: splenocytes stimulated with α-GalCer, cytokine ELISA; type: cell-based, BALB/cJ mice
Experimental: as §1, §2, §3

[8] = system: iNKT cell; settings: references 2-5; cited from earlier work
[9] = bronchial lymph node cells, 100 μg/ml ovalbumin, versus PBS treated group (FIG. 3)

| Compound | dermatitis in the CHS model [1] | IL-4 secretion to OVA recall [2, 9] | IL-5 secretion to OVA recall [2, 9] | IL-13 secretion to OVA recall [2, 9] | ova-specific secretion of IFN-γ after in vitro re-challenge ([2]; sensitized and DPPE-PEG treated animals) | IL-2 release from DN32 iNKT cells [3] | AHR by direct measurement of airway resistance (RL) and dynamic compliance (Cdyn) ([4]; 250 μg i.v., anesthetized, tracheostomized, mechanically ventilated mice (FIG. 2C)) | number of cells (eosinophils, lymphocytes, macrophages) in BAL fluid ([4]; 250 μg i.v.) | histological examination of H&E-stained lung sections [4] | development of methacholine-induced AHR (PenH, whole-body plethysmograph) [4] | cytokine production by anti-CD3 activated T cells [5] | binding to CD1d [6] | secretion of IL-4 by α-GalCer-stimulated iNKT cells ([7]; splenocytes, α-GalCer 100 ng/ml, increasing concentrations of DPPE-PEG, 48 h, ELISA (FIG. 1A/1B)) | iNKT cells cytokine release compared to anti-CD3 activated T cells (preference) ([7]; α-GalCer-stimulated versus anti-CD3-stimulated splenocytes (FIGS. 1A and B)) | iNKT cell activation [8] | development of OVA specific Th2 responses ([2]; bronchial lymph nodes restimulated with 100 μg of OVA, 72 hrs (FIG. 3)) |
| --- | --- | --- | --- | --- | --- | --- | --- | --- | --- | --- | --- | --- | --- | --- | --- | --- |
| 1,2-Dipalmitoyl-sn-Glycero-3-Phosphoethanolamine-N-[Methoxy(Polyethylene glycol)-350] [DPPE-PEG350] | blocked | No significant difference | No significant difference | No significant difference | did not affect | inhibited | confirmed | significantly reducing | no significant differences | completely prevented | no or minimal effect | bind | inhibited | preferentially inhibited | prevent |  |
| Phosphatidylethanolamine [reference compound] |  |  |  |  |  |  |  |  |  |  |  | bind |  |  | prevent |  |
| CCCCCCCCCCCCCCCC(=O)OC[C@H](COP(=O)(O)OCCN)OC(=O)CCCCCCCCCCCCCCC [DPPE, 1,2-Dipalmitoyl-sn-Glycero-3-Phosphoethanolamine] |  |  |  |  |  |  |  | almost completely abrogated | minimal mucus production and negligible cellular infiltration | completely inhibited |  |  |  |  |  | does not inhibit |
